Target: Cyclin-dependent kinase 6 (Homo sapiens) (UniProt Q00534)
Sequence (Q00534 whole entry): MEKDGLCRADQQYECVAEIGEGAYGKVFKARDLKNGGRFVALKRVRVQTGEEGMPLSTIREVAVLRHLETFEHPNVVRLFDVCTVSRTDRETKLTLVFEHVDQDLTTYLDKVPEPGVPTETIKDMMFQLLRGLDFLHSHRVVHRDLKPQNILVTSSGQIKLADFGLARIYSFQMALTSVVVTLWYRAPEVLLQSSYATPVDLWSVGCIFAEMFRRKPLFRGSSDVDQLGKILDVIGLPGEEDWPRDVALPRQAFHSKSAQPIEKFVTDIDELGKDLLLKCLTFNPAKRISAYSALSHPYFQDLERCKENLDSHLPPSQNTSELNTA

| ΔTm [°C] | Structure (SMILES) |
| --- | --- |
| -0.4 | Oc1cccc(-c2nc(N3CCOCC3)c3oc4ncccc4c3n2)c1 |
| 3.5 | N#C/C(=C1/Nc2ccccc2S1)c1ccnc(NCCc2cccnc2)n1 |
| 0.4 | N#C/C(=C\c1ccc(O)c(O)c1)C(=O)Nc1ccccc1 |
| 0.4 | N#C/C(=C\c1ccc(O)c(O)c1)C(=O)NCc1ccccc1 |

Target: Cyclin-dependent kinase 16 (Homo sapiens) (UniProt Q00536)
Sequence (Q00536 whole entry): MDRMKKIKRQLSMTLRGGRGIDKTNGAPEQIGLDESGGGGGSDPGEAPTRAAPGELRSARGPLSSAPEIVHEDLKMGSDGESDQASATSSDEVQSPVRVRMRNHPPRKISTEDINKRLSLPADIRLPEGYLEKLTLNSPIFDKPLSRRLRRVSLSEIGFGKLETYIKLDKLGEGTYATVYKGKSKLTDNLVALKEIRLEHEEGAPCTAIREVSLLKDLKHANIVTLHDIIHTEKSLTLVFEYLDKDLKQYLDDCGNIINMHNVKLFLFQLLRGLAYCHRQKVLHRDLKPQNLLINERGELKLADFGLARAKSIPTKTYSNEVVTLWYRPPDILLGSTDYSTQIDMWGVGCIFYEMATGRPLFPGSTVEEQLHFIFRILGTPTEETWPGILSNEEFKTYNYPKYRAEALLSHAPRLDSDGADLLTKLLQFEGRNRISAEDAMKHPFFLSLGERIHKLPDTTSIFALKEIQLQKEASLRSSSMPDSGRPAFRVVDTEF

| ΔTm [°C] | Structure (SMILES) |
| --- | --- |
| -0.1 | Oc1cccc(-c2nc(N3CCOCC3)c3oc4ncccc4c3n2)c1 |
| 5.8 | N#C/C(=C1/Nc2ccccc2S1)c1ccnc(NCCc2cccnc2)n1 |
| -0.5 | N#C/C(=C\c1ccc(O)c(O)c1)C(=O)Nc1ccccc1 |
| -0.6 | N#C/C(=C\c1ccc(O)c(O)c1)C(=O)NCc1ccccc1 |

Target: T1, Serine/threonine-protein kinase 4 (Homo sapiens) (UniProt Q13043)
T1 sequence (whole entry): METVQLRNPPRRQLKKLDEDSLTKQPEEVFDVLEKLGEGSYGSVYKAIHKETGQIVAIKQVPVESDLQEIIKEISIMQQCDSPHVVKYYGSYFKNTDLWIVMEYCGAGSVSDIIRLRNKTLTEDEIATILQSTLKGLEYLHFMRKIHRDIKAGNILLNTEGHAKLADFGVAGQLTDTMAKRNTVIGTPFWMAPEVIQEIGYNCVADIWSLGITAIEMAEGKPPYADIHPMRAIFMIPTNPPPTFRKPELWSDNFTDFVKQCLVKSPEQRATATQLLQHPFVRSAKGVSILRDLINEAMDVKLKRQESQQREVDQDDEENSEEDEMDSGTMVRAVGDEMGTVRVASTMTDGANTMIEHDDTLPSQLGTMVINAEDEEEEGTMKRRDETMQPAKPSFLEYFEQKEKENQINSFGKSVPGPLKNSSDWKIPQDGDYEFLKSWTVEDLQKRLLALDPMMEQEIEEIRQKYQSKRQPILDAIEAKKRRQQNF

| ΔTm [°C] | Structure (SMILES) |
| --- | --- |
| -0.1 | Oc1cccc(-c2nc(N3CCOCC3)c3oc4ncccc4c3n2)c1 |
| 1.2 | N#C/C(=C1/Nc2ccccc2S1)c1ccnc(NCCc2cccnc2)n1 |
| 0.4 | N#C/C(=C\c1ccc(O)c(O)c1)C(=O)Nc1ccccc1 |
| 0.4 | N#C/C(=C\c1ccc(O)c(O)c1)C(=O)NCc1ccccc1 |

Target: Mitogen-activated protein kinase 6 (Homo sapiens) (UniProt Q16659)
Sequence (Q16659 whole entry): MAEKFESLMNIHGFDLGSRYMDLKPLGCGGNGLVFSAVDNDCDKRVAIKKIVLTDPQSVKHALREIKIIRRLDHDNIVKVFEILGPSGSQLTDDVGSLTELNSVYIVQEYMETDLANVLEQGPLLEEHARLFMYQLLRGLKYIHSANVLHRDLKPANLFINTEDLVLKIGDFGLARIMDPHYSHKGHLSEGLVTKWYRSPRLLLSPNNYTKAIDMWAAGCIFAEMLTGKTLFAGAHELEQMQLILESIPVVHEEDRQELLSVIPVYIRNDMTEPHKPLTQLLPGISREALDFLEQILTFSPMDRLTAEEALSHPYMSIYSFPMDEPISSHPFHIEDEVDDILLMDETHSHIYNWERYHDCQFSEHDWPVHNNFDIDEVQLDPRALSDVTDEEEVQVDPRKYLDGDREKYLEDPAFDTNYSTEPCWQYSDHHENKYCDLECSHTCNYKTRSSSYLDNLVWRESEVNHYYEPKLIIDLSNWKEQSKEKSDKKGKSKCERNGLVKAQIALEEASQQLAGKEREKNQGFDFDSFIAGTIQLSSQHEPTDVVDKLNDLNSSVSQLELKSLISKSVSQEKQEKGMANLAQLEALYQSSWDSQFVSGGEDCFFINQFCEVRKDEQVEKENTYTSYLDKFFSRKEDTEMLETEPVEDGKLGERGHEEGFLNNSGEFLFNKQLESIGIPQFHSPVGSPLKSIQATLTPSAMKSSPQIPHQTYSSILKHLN

| ΔTm [°C] | Structure (SMILES) |
| --- | --- |
| 0.5 | Oc1cccc(-c2nc(N3CCOCC3)c3oc4ncccc4c3n2)c1 |
| 2 | N#C/C(=C1/Nc2ccccc2S1)c1ccnc(NCCc2cccnc2)n1 |
| 0.5 | N#C/C(=C\c1ccc(O)c(O)c1)C(=O)Nc1ccccc1 |
| 0.4 | N#C/C(=C\c1ccc(O)c(O)c1)C(=O)NCc1ccccc1 |

Target: T2, Mitogen-activated protein kinase kinase kinase 5 (Homo sapiens) (UniProt Q99683)
T2 sequence (whole entry): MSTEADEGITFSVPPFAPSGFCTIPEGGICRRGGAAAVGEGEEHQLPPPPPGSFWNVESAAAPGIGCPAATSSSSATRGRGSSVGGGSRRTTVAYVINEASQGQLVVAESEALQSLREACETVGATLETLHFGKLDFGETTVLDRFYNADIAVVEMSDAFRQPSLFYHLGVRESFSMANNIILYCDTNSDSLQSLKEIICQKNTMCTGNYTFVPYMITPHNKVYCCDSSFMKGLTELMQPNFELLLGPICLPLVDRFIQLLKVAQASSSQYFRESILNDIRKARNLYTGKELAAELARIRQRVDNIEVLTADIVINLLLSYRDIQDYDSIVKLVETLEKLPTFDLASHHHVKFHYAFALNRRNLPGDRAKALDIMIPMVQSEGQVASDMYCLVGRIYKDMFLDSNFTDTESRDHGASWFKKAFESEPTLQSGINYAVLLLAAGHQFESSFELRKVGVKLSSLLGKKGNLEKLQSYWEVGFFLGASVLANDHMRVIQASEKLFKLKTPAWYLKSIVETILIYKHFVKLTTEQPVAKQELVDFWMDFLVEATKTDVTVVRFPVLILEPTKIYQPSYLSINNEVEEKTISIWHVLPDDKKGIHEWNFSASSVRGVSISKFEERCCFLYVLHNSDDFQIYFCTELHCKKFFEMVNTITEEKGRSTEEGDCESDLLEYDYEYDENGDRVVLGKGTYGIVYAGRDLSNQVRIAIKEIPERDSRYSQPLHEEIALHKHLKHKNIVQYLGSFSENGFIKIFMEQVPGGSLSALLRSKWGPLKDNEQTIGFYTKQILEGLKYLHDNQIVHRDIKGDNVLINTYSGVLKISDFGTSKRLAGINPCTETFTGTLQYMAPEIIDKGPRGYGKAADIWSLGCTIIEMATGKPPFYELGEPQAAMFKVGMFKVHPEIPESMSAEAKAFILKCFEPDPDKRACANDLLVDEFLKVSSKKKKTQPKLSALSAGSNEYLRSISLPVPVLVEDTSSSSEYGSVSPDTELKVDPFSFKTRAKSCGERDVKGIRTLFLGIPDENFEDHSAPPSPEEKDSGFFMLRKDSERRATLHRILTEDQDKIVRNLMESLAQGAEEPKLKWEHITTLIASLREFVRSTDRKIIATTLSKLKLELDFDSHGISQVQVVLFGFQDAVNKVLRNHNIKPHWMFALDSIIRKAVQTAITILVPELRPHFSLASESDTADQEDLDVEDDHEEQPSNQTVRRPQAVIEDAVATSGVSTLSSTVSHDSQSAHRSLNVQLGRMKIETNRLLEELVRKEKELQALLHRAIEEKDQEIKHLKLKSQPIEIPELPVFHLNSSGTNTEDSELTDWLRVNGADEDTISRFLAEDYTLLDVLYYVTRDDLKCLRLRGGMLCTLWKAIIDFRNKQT

| ΔTm [°C] | Structure (SMILES) |
| --- | --- |
| -0.4 | Oc1cccc(-c2nc(N3CCOCC3)c3oc4ncccc4c3n2)c1 |
| 3.6 | N#C/C(=C1/Nc2ccccc2S1)c1ccnc(NCCc2cccnc2)n1 |
| -0.2 | N#C/C(=C\c1ccc(O)c(O)c1)C(=O)Nc1ccccc1 |
| -0.2 | N#C/C(=C\c1ccc(O)c(O)c1)C(=O)NCc1ccccc1 |

Target: Serine/threonine-protein kinase PLK1 (Homo sapiens) (UniProt P53350)
Sequence (P53350 whole entry): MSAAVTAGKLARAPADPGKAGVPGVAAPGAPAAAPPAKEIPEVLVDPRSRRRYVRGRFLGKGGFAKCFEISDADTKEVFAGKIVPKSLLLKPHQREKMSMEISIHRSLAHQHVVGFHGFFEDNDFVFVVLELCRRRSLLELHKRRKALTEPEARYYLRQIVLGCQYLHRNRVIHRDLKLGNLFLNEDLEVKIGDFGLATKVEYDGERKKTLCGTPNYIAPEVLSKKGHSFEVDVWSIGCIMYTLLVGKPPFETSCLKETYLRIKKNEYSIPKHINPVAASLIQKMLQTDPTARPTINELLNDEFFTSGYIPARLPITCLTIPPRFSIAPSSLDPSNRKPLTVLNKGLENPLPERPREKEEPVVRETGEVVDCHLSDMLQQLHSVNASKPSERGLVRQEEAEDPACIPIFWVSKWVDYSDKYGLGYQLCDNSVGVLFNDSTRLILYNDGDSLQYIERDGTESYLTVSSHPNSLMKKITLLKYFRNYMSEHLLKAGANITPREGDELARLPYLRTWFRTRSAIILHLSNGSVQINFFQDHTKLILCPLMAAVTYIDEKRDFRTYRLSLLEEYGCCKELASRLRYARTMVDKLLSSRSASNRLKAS

| ΔTm [°C] | Structure (SMILES) |
| --- | --- |
| 0.3 | Oc1cccc(-c2nc(N3CCOCC3)c3oc4ncccc4c3n2)c1 |
| 2.1 | N#C/C(=C1/Nc2ccccc2S1)c1ccnc(NCCc2cccnc2)n1 |
| 0.7 | N#C/C(=C\c1ccc(O)c(O)c1)C(=O)Nc1ccccc1 |
| 0.7 | N#C/C(=C\c1ccc(O)c(O)c1)C(=O)NCc1ccccc1 |

Target: Calcium/calmodulin-dependent protein kinase type 1G (Homo sapiens) (UniProt Q96NX5)
Sequence (Q96NX5 whole entry): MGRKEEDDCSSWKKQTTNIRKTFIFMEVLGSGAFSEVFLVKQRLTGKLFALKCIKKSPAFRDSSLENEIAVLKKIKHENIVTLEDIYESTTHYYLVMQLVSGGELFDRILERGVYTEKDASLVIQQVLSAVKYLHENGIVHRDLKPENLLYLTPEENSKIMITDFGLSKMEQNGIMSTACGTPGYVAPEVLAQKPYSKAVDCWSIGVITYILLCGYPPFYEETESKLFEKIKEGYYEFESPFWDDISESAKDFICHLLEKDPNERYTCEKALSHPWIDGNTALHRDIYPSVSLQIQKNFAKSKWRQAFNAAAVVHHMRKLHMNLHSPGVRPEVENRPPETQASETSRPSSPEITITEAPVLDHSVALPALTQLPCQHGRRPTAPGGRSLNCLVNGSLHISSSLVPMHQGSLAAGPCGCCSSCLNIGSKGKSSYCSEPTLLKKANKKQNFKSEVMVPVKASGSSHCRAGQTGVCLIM

| ΔTm [°C] | Structure (SMILES) |
| --- | --- |
| 0.1 | Oc1cccc(-c2nc(N3CCOCC3)c3oc4ncccc4c3n2)c1 |
| 2.3 | N#C/C(=C1/Nc2ccccc2S1)c1ccnc(NCCc2cccnc2)n1 |
| 0.4 | N#C/C(=C\c1ccc(O)c(O)c1)C(=O)Nc1ccccc1 |
| 0.1 | N#C/C(=C\c1ccc(O)c(O)c1)C(=O)NCc1ccccc1 |

Target: T3, Serine/threonine-protein kinase Nek2 (Homo sapiens) (UniProt P51955)
T3 sequence (whole entry): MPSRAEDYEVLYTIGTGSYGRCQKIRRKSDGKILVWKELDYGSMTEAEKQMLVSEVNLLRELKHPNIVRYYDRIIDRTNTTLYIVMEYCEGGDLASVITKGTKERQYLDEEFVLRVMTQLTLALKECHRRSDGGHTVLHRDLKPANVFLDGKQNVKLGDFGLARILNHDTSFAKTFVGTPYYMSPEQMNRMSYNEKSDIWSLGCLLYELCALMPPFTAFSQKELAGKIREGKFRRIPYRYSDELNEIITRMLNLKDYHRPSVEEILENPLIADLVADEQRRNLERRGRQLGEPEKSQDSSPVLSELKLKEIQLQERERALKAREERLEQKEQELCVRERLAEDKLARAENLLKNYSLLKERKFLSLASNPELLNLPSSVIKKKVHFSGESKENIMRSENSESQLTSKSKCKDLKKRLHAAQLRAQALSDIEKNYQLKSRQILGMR

| ΔTm [°C] | Structure (SMILES) |
| --- | --- |
| 0.5 | Oc1cccc(-c2nc(N3CCOCC3)c3oc4ncccc4c3n2)c1 |
| 1.9 | N#C/C(=C1/Nc2ccccc2S1)c1ccnc(NCCc2cccnc2)n1 |
| 1.4 | N#C/C(=C\c1ccc(O)c(O)c1)C(=O)Nc1ccccc1 |
| 0.7 | N#C/C(=C\c1ccc(O)c(O)c1)C(=O)NCc1ccccc1 |

Target: Serine/threonine-protein kinase 10 (Homo sapiens) (UniProt O94804)
Sequence (O94804 whole entry, looked up): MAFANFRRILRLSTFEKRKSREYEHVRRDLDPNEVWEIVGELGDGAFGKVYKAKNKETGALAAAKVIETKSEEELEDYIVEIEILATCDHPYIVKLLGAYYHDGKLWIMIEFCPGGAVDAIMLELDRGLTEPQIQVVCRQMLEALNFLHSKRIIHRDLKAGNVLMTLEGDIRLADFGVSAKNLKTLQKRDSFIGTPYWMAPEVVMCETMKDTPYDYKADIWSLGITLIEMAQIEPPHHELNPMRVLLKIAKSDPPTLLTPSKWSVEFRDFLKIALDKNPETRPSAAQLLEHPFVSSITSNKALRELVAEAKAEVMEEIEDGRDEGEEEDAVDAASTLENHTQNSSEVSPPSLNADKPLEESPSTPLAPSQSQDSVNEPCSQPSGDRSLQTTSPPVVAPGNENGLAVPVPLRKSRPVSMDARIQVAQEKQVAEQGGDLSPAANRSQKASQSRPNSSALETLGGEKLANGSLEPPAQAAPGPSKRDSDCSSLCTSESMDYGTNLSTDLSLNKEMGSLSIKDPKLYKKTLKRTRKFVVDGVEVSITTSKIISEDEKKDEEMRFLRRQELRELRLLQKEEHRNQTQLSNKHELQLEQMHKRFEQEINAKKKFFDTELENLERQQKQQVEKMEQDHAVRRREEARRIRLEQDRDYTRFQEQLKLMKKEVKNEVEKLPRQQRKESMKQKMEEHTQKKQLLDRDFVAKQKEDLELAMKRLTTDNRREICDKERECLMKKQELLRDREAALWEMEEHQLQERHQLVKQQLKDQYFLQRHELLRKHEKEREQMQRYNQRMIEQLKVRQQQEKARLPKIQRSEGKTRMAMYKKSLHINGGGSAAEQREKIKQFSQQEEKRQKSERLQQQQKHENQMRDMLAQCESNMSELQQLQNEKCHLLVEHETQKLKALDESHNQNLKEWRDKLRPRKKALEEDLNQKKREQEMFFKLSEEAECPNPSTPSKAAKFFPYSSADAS

| ΔTm [°C] | Structure (SMILES) |
| --- | --- |
| -0.4 | Oc1cccc(-c2nc(N3CCOCC3)c3oc4ncccc4c3n2)c1 |
| 1.4 | N#C/C(=C1/Nc2ccccc2S1)c1ccnc(NCCc2cccnc2)n1 |
| 1.2 | N#C/C(=C\c1ccc(O)c(O)c1)C(=O)Nc1ccccc1 |
| 0.7 | N#C/C(=C\c1ccc(O)c(O)c1)C(=O)NCc1ccccc1 |

Target: Dual specificity protein kinase CLK3 (Homo sapiens) (UniProt P49761)
Sequence (P49761 whole entry, looked up): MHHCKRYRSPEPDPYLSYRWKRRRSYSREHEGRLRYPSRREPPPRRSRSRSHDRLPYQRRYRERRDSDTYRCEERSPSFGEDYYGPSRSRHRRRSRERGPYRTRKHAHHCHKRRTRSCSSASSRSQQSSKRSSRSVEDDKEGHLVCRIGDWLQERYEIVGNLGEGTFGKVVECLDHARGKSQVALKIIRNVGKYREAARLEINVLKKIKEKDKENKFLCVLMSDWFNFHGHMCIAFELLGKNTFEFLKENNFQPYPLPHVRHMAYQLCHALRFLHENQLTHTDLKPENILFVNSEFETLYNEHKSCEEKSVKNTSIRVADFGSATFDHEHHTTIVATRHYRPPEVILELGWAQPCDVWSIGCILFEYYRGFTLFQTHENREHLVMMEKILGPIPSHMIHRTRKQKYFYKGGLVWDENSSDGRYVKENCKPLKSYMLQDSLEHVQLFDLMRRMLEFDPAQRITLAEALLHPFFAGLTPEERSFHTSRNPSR

| ΔTm [°C] | Structure (SMILES) |
| --- | --- |
| 0 | Oc1cccc(-c2nc(N3CCOCC3)c3oc4ncccc4c3n2)c1 |
| 4.9 | N#C/C(=C1/Nc2ccccc2S1)c1ccnc(NCCc2cccnc2)n1 |
| 0.2 | N#C/C(=C\c1ccc(O)c(O)c1)C(=O)Nc1ccccc1 |
| 0.5 | N#C/C(=C\c1ccc(O)c(O)c1)C(=O)NCc1ccccc1 |

Source: ChEMBL document CHEMBL1145498, “A systematic interaction map of validated kinase inhibitors with Ser/Thr kinases” (Proc Natl Acad Sci U S A, 2007)
